In brackets after ≈: the same amount, converted by molar mass.

The test system of one test is Pseudomonus aeruginosa NCTC-10490. As to the kind of experiment: In vitro activity, two-fold agar-plate dilution method, minimal inhibitory concentration (MIC). The format is cell-based. Particulars: 20 h, read-out: MIC (minimal inhibitory concentration).
Turning to `Cn1nnnc1SCC1=C(C(=O)O)N2C(=O)[C@@H](NC(=O)[C@H](NC(=O)c3cc(Cl)ccc3O)c3ccccc3)[C@H]2SC1` [Example 1, 7-[D-N-(2-hydroxy-5-chlorobenzoyl)-2-phenylglycinamido]-3-(1-methyl-1H-tetrazol-5-ylthiomehyl)-3-cephem-4-carboxylic acid], the MIC stood at 1.56 µg/mL (≈ 2.53 µM). Same read-out and setting: the value for `Cn1nnnc1SCC1=C(C(=O)O)N2C(=O)C(NC(=O)[C@H](NC(=O)c3cc(C#N)c(Cl)cc3O)c3ccccc3)C2SC1` (stereo partly drawn) [Example 6, 7-[D-N-(2-hydroxy-4-chloro-5-cyanobenzoyl)-2-phenylglycinamido]-3-(1-methyl-1H-tetrazol-5-ylthiomethyl)-3-cephem-4-carboxylic acid] was 1.56 µg/mL (≈ 2.43 µM); that for `Cn1nnnc1SCC1=C(C(=O)O)N2C(=O)C(NC(=O)[C@H](NC(=O)c3cc([N+](=O)[O-])cc([N+](=O)[O-])c3O)c3ccccc3)C2SC1` (stereo partly drawn) [Example 9, 7-[D-N-(2-hydroxy-3,5-dinitrobenzoyl)-2-phenylglycinamido]-3-(1-methyl-1H-tetrazol-5-ylthiomethyl)-3-cephem-4-carboxylic acid] was 1.56 µg/mL (≈ 2.32 µM); that for `Cn1nnnc1SCC1=C(C(=O)O)N2C(=O)C(NC(=O)[C@H](NC(=O)c3ccc(O)cc3O)c3ccccc3)C2SC1` (stereo partly drawn) [Example 25, 7-[D-N-(2,4-dihydroxybenzoyl)-2-phenylglycinamido]-3-(1-methyl-1H-tetrazol-5-ylthiomethyl)-3-cephem-4-carboxylic acid] was 1.56 µg/mL (≈ 2.61 µM).

`CN1CCN(S(=O)(=O)c2ccc(O)c(C(=O)N[C@@H](C(=O)NC3C(=O)N4C(C(=O)O)=C(CSc5nnnn5C)CSC34)c3ccccc3)c2)CC1` (stereo partly drawn) [Example 52, 7-[D-N-{2-hydroxy-5-(4-methyl-1-piperazinylsulfonyl)benzoyl}-2-phenylglycinamido]-3-(1-methyl-1H-tetrazol-5-ylthiomethyl)-3-cephem-4-carboxylic acid]: the MIC turned out to be 1.56 µg/mL (≈ 2.1 µM).

Consider `CCOC(=O)CS(=O)(=O)NCc1nnc(SCC2=C(C(=O)O)N3C(=O)C(NC(=O)[C@H](NC(=O)c4cc(Cl)cc(Cl)c4O)c4ccccc4)C3SC2)s1` (stereo partly drawn) [Example 53, 7-[D-N-(2-hydroxy-3,5-dichlorobenzoyl)-2-phenylglycinamido]-3-(5-ethoxycarbonylmesylaminomethyl-1,3,4-thiadiazol-2-ylthiomethyl)-3-cephem-4-carboxylic acid], for which the MIC is 1.56 µg/mL (≈ 1.88 µM). Same read-out and setting: to `CC(=O)OCC1=C(C(=O)O)N2C(=O)[C@@H](NC(=O)[C@H](NC(=O)COc3ccc(Cl)cc3C(=O)c3ccccc3)c3ccccc3)[C@H]2SC1` [Example 67, 7-[D-N-{2-(2-benzoyl-4-chlorophenoxy)acetyl}-2-phenylglycinamido]cephalosporanic acid] belongs 1.56 µg/mL (≈ 2.3 µM).

Staying with this test, now noted: heart infusion agar (HI-agar); overnight culture in Trypticase-soy broth (10^8 viable cells per ml.); incubation at 37° C. for 20 hours; read-out: MIC (minimal inhibitory concentration).
Turning to `Cn1nnnc1SCC1=C(C(=O)O)N2C(=O)C(NC(=O)[C@H](NC(=O)c3cc(Cl)cc(Cl)c3O)c3ccccc3)C2SC1` (stereo partly drawn) [Example 2, 7-[D-N-(2-hydroxy-3,5-dichlorobenzoyl)-2-phenylglycinamido]-3-(1-methyl-1H-tetrazol-5-ylthiomethyl)-3-cephem-4-carboxylic acid], the MIC is 0.78 µg/mL (≈ 1.2 µM). On to `Cn1nnnc1SCC1=C(C(=O)O)N2C(=O)C(NC(=O)[C@H](NC(=O)c3cc([N+](=O)[O-])ccc3O)c3ccccc3)C2SC1` (stereo partly drawn) [Example 3, 7-[D-N-(2-hydroxy-5-nitrobenzoyl)-2-phenylglycinamido]-3-(1-methyl-1H-tetrazol-5-ylthiomethyl)-3-cephem-4-carboxylic acid], for which the MIC is 0.78 µg/mL (≈ 1.24 µM). On the same count and under the same terms, to `Cn1nnnc1SCC1=C(C(=O)O)N2C(=O)C(NC(=O)[C@H](NC(=O)c3cc(S(N)(=O)=O)ccc3O)c3ccccc3)C2SC1` (stereo partly drawn) [Example 4, 7-[D-N-(2-hydroxy-5-sulfamoylbenzoyl)-2-phenylglycinamido]-3-(1-methyl-1H-tetrazol-5-ylthiomethyl)-3-cephem-4-carboxylic acid] belongs 0.78 µg/mL (≈ 1.18 µM); to `CC(=O)c1ccc(O)c(C(=O)N[C@@H](C(=O)NC2C(=O)N3C(C(=O)O)=C(CSc4nnnn4C)CSC23)c2ccccc2)c1` (stereo partly drawn) [Example 5, 7-[D-N-(2-hydroxy-5-acetylbenzoyl)-2-phenylglycinamido]-3-(1-methyl-1H-tetrazol-5-ylthiomethyl)-3-cephem-4-carboxylic acid], 0.78 µg/mL (≈ 1.25 µM). The same measure, in the same setting: to `Cn1nnnc1SCC1=C(C(=O)O)N2C(=O)C(NC(=O)[C@H](NC(=O)c3cc(C(N)=O)c(Cl)cc3O)c3ccccc3)C2SC1` (stereo partly drawn) [Example 7, 7-[D-N-(2-hydroxy-4-chloro-5-carbamoylbenzoyl)-2-phenylglycinamido]-3-(1-methyl-1H-tetrazol-5-ylthiomethyl)-3-cephem-4-carboxylic acid] belongs 0.78 µg/mL (≈ 1.18 µM); to `Cn1nnnc1SCC1=C(C(=O)O)N2C(=O)C(NC(=O)[C@H](NC(=O)c3cc(S(N)(=O)=O)c(Cl)cc3O)c3ccccc3)C2SC1` (stereo partly drawn) [Example 8, 7-[D-N-(2-hydroxy-4-chloro-5-sulfamoylbenzoyl)-2-phenylglycinamido]-3-(1-methyl-1H-tetrazol-5-ylthiomethyl)-3-cephem-4-carboxylic acid], 0.78 µg/mL (≈ 1.12 µM); to `Cc1nnc(SCC2=C(C(=O)O)N3C(=O)C(NC(=O)[C@H](NC(=O)[C@H](O)c4ccccc4)c4ccccc4)C3SC2)s1` (stereo partly drawn) [Example 56, 7-[D-N-(D-mandeloyl)-2-phenylglycinamido]-3-(5-methyl-1,3,4-thiadiazol-2-ylthiomethyl)-3-cephem-4-carboxylic acid], 12.5 µg/mL (≈ 20.4 µM). For `Cn1nnnc1SCC1=C(C(=O)O)N2C(=O)C(NC(=O)[C@H](NC(=O)COc3cc(Cl)cc(Cl)c3O)c3ccccc3)C2SC1` (stereo partly drawn) [Example 63, 7-[D-N-{2-(2-hydroxy-3,5-dichlorophenoxy)acetyl}-2-phenylglycinamido]-3-(1-methyl-1H-tetrazol-5-ylthiomethyl)-3-cephem-4-carboxylic acid], the MIC is 6.25 µg/mL (≈ 9.18 µM). Still for that read-out and setting: the value for `CC(=O)OCC1=C(C(=O)O)N2C(=O)[C@@H](NC(=O)[C@H](NC(=O)COc3ccc(Cl)cc3C(=O)c3ccc(NC(=O)CSCC(=O)O)cc3)c3ccccc3)[C@H]2SC1` [Example 69, 7-[D-N-[2-{2-(4-carboxymethylthioacetamidobenzoyl)-4-chlorophenoxy}acetyl]-2-phenylglycinamido]cephalosporanic acid] was 6.25 µg/mL (≈ 7.57 µM).

(Values after patent US4350692A, “3,7-Disubstituted-3-cephem-4-carboxylic acids” (Fujisawa Pharmaceutical Co., Ltd., priority 1976, dated 1982).)
